Experimental data from patent US11576900B2, “Compositions and methods of reducing serum cholesterol and PCSK9” (CASE WESTERN RESERVE UNIVERSITY, priority 2017, dated 2023).

Key:
human AKR1A1 = target: T1, human AKR1A1 (Homo sapiens, UniProt P14550); assay: AKR1A1 SNO-CoA reductase activity assay (recombinant enzyme); format: biochemical; conditions: 200 nM recombinant AKR1A1, 100 μM NADPH, 100 μM SNO-CoA; FIG. 5; read-out: IC50 for inhibition of AKR1A1 SNO-CoA Reductase Activity
T1 construct: His; made in house; host or cells: Rosetta2(DE3)pLysS E. coli
T1 sequence (P14550 1-325): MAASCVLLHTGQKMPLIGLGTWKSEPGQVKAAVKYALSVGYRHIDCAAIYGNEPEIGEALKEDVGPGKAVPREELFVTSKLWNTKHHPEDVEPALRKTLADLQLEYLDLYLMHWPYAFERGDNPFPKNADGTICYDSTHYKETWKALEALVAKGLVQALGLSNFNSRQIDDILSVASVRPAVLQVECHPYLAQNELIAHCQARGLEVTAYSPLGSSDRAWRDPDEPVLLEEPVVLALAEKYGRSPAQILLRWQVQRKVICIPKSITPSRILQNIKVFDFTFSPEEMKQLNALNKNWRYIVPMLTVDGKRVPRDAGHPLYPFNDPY
Procedure: The human AKR1A1 coding sequence was cloned into a pET21b bacterial expression vector. pET21b-AKR1A1 was transformed into Rosetta2(DE3)pLysS E. coli and expression was induced by the addition of 100 μM isopropyl-β-D-1-thiogalactopyranoside at A600nm=0.4. Bacteria were grown for 4 hours at 25° C. and recombinant His-tagged SCoR was purified via Ni-affinity purification. Triplicate reactions were performed with 200 nM recombinant AKR1A1, 100 μM NADPH, 100 μM SNO-CoA, and increasing concentrations of imirestat dissolved in dimethyl sulfoxide (DMSO). SNO-CoA was prepared by reacting equal volumes of 0.1M CoA in 1M HCl and 0.1M NaNO2 water containing 100 μM EDTA and 100 μM DTPA. Initial rates were calculated using absorbance decrease at 340 nm. IC50 was calculated in GraphPad Prism 7 using non-linear regression analysis. For AKR1A1 liver activity following in-diet imirestat treatment, frozen liver tissue was dounce homogenized (30 dounces) in 50 mM phosphate buffer, pH 7.0 supplemented with 100 μM ethylenediaminetetraacetic acid (EDTA) and diethylenetriamine pentaacetate (DTPA) and 150 mM sodium chloride. […] Reactions were initiated by the addition of liver lysate and specific activity was calculated from the change in absorbance at 340 nm, protein concentration, and an extinction coefficient of 7.06 mM^−1·cm^−1 (combined for SNO-CoA and NADPH).

[1] = Total serum cholesterol in C57BL6J mice on in-diet imirestat; format: in vivo; conditions: C57BL6J 24 week old male mice, 4 weeks in-diet Imirestat (0.0125% w/w chow); FIG. 6
Procedure: (§1) AKR1A1^−/− mice were generated by Deltagen, Inc. C57BL6/J and ApoE^−/− mice were purchased from The Jackson Laboratory. CETP-ApoB100 transgenic mice were purchased from Taconic Biosciences. All mice were maintained under a 12-hour light/dark cycle. For imirestat treatment studies, mice were provided control chow or chow containing 0.0125% w/w imirestat (125 mg imirestat/1 kg chow) ad libitum. C57BL6/J and ApoE^−/− mice were provided control chow or imirestat chow for 4 weeks starting at age 20 weeks; CETP-ApoB100 transgenic mice were provided control chow or imirestat chow for 8 weeks starting at age 10 weeks.
(§2) Prior to euthanasia, mice were fasted for the indicated length of time. […] Collected blood was allowed to coagulate for 20 minutes at room temperature in a pediatric serum separator tube. Serum was separated by centrifugation at 2000 g for 20 minutes at 4° C. […]
(§3) Total serum cholesterol was determined by standard enzymatic assays. For lipoprotein cholesterol quantification, lipoprotein fractions were separated by gel filtration column chromatography. Approximately 70 fractions were collected and cholesterol in each fraction was quantified by standard enzymatic assays. Calibration of the column with purified lipoprotein fractions permitted quantification of cholesterol in various lipoprotein classes. Serum PCSK9 was quantified by solid phase sandwich ELISA.

[2] = Cholesterol fractionation in C57BL6J mice on in-diet imirestat; format: in vivo; conditions: C57BL6J 24 week old male mice, 4 weeks in-diet Imirestat; FIG. 7
Procedure: as §1, §2, §3

PCSK9 [3] = assay: Serum PCSK9 levels in C57BL6J mice on in-diet imirestat (ELISA); format: in vivo; conditions: C57BL6J 24 week old male mice, 4 weeks in-diet Imirestat; FIG. 8
Procedure: as §1, §2, §3

AKR1A1 = target: T2, AKR1A1 (Mus musculus, UniProt Q9JII6); assay: SNO-CoA reductase activity in liver lysate of C57BL6J mice after in-diet imirestat; format: in vivo; conditions: C57BL6J 24 week old male mice, 4 weeks in-diet Imirestat; FIG. 9
T2 construct: For AKR1A1 liver activity following in-diet imirestat treatment, frozen liver tissue was dounce homogenized; from tissue; host or cells: liver of C57BL6/J mice (clarified lysate)
T2 sequence (Q9JII6 1-325): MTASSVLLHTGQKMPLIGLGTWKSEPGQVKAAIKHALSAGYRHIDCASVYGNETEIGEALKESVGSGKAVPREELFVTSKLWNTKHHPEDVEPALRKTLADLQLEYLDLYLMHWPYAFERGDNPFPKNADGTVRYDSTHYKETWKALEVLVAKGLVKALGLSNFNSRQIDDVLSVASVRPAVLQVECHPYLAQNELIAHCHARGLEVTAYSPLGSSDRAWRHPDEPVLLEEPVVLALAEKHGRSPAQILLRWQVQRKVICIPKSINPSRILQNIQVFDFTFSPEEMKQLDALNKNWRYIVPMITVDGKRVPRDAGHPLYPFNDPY
Procedure: as §1
Prior to euthanasia, mice were fasted for the indicated length of time. […]
The human AKR1A1 coding sequence was cloned into a pET21b bacterial expression vector. pET21b-AKR1A1 was transformed into Rosetta2(DE3)pLysS E. coli and expression was induced by the addition of 100 μM isopropyl-β-D-1-thiogalactopyranoside at A600nm=0.4. […] Initial rates were calculated using absorbance decrease at 340 nm. IC50 was calculated in GraphPad Prism 7 using non-linear regression analysis. […] Reactions were initiated by the addition of liver lysate and specific activity was calculated from the change in absorbance at 340 nm, protein concentration, and an extinction coefficient of 7.06 mM^−1·cm^−1 (combined for SNO-CoA and NADPH).

[4] = Total serum cholesterol in ApoE deficient mice on in-diet imirestat; format: in vivo; conditions: ApoE deficient 24 week old male mice, 4 weeks in-diet Imirestat; FIG. 10
Procedure: as §1, §2, §3

[5] = Cholesterol fractionation in ApoE deficient mice on in-diet imirestat; format: in vivo; conditions: ApoE deficient 24 week old male mice, 4 weeks in-diet Imirestat; FIG. 11
Procedure: as §1, §2, §3

PCSK9 [6] = assay: Serum PCSK9 levels in ApoE deficient mice on in-diet imirestat (ELISA); format: in vivo; conditions: ApoE deficient 24 week old male mice, 4 weeks in-diet Imirestat; FIG. 12
Procedure: as §1, §2, §3

[7] = Total serum cholesterol in CETP/ApoB100 transgenic mice on in-diet imirestat; format: in vivo; conditions: CETP/ApoB100 transgenic male mice, FIG. 13
Procedure: AKR1A1^−/− mice were generated by Deltagen, Inc. C57BL6/J and ApoE^−/− mice were purchased from The Jackson Laboratory. CETP-ApoB100 transgenic mice were purchased from Taconic Biosciences. All mice were maintained under a 12-hour light/dark cycle. For imirestat treatment studies, mice were provided control chow or chow containing 0.0125% w/w imirestat (125 mg imirestat/1 kg chow) ad libitum. […]
as §2, with “C. Serum was stored at −80° C. until analysis. For overnight fasted 12-week-old AKR1A1^−/− mice (FIG. 5), whole blood was provided to University Hospitals' Clinical Laboratory (Cleveland, Ohio) for cholesterol analysis.” for “C.”
as §3

- IC50 (human AKR1A1): ~120 nM
- SNO-CoA Reductase activity in liver (AKR1A1 liver activity) vs control (AKR1A1): lower AKR1A1 liver activity
Structure (SMILES): O=C1NC(=O)C2(N1)c1cc(F)ccc1-c1ccc(F)cc12 [Imirestat, 2,7-Difluoro-2′H,5′H-spiro[fluorene-9,4′-imidazolidine]-2′,5′-dione]
- total serum cholesterol vs control [1]: lower total serum cholesterol
- cholesterol fractionation vs control [2]: reduced total serum cholesterol
- serum PCSK9 levels vs control (PCSK9 [3]): lower total serum PCSK9 levels
- total serum cholesterol vs control [4]: lower total serum cholesterol
- cholesterol fractionation vs control [5]: reduced total serum cholesterol
- serum PCSK9 levels vs control (PCSK9 [6]): lower total serum PCSK9 levels
- total serum cholesterol vs control [7]: lower total serum cholesterol
